Assay results published in publication doi:10.1101/2023.12.04.569845, “Identification of 4-(6-((2-methoxyphenyl)amino)pyrazin-2-yl)benzoic acids as CSNK2A inhibitors with antiviral activity and improved selectivity over PIM3” (bioRxiv, 2023).
Like-named read-outs stand apart in the source and are kept apart here. Each block holds one molecule with its values, some of them ahead of it.

Legend:
Test in all cases: biochemical
Parameters in all cases: Thermal shift (DSF, SYPRO Orange) Tm shift of recombinant kinase domains at 10 uM compound
[1] = target: AURKB (Homo sapiens, UniProt Q96GD4)
[2] = target: T1, DMPK1 (Homo sapiens, UniProt Q09013)
T1 construct: gene DMPK
T1 sequence (Q09013 1-629): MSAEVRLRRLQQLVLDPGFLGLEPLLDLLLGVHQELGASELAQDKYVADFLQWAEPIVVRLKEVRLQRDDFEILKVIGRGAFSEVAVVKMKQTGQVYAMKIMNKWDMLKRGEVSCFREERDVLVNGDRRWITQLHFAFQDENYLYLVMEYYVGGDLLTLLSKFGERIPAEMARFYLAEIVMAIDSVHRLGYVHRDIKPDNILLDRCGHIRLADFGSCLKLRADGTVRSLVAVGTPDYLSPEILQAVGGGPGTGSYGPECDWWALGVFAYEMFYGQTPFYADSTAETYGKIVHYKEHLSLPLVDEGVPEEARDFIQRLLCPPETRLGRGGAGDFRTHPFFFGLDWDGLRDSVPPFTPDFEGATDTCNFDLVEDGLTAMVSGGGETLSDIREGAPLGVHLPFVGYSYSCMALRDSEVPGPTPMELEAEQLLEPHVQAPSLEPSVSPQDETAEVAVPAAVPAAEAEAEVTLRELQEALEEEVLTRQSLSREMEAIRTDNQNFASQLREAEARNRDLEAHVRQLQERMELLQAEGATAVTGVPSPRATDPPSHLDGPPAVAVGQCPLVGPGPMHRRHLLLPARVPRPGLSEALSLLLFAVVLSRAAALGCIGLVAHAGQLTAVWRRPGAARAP

[3] = target: T2, GAK (Homo sapiens, UniProt O14976)
T2 sequence (O14976 1-1311): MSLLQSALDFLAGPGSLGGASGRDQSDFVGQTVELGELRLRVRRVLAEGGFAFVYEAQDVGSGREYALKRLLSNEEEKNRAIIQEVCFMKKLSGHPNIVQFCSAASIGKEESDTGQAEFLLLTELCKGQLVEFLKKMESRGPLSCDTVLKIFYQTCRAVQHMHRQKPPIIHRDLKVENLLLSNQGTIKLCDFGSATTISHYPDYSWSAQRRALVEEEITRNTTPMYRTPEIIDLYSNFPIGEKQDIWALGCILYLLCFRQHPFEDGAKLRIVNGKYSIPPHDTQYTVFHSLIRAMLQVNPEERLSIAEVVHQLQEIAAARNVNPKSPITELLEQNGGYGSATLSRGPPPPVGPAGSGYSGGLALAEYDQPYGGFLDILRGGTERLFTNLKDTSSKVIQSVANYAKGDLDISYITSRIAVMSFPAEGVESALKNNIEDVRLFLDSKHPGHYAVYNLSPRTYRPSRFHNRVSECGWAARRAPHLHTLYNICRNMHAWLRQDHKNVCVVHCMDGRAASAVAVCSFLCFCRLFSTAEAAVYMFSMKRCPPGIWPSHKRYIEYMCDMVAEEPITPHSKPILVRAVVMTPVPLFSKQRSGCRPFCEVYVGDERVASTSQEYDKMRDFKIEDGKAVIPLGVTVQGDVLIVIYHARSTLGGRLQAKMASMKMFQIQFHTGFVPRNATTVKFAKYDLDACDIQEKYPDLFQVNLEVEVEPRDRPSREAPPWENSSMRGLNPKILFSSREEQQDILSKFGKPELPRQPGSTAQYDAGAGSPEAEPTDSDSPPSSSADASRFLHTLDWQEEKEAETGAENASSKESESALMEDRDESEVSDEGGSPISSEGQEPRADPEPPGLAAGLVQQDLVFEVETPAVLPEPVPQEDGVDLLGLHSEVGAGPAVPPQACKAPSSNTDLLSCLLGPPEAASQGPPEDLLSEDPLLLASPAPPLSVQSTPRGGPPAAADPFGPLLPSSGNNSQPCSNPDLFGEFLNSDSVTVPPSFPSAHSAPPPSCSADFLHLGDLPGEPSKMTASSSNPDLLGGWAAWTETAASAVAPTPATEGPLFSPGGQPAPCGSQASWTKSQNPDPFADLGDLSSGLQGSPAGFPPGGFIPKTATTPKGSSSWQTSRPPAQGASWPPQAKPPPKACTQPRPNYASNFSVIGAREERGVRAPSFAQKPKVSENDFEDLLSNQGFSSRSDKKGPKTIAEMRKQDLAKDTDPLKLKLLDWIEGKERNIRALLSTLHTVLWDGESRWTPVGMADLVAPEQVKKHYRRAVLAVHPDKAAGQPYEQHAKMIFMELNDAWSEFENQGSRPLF

[4] = target: T3, TTK (Homo sapiens, UniProt P33981)
T3 sequence (P33981 1-857): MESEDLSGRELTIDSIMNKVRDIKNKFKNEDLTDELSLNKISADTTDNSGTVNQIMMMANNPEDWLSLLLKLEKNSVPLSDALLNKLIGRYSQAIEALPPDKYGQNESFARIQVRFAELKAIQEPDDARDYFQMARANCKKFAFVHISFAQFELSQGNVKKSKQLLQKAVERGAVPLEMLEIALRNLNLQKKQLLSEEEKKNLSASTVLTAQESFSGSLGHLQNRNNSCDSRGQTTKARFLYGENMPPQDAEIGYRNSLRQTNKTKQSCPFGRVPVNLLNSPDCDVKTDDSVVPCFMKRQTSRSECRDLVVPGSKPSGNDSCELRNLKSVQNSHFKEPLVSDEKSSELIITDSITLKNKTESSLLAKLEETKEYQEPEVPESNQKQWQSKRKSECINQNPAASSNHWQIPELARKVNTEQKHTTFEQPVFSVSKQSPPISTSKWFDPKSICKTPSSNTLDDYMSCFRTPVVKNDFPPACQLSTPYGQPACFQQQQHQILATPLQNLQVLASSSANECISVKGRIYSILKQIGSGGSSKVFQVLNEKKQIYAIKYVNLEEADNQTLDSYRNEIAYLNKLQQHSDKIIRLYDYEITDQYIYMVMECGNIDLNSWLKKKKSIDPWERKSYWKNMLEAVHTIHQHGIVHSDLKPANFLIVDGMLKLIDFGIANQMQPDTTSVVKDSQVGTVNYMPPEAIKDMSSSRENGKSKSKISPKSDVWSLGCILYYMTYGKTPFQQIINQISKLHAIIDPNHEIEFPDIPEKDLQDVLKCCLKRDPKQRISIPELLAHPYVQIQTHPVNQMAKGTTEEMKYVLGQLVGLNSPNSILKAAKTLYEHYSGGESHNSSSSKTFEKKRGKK

AURKB, sequence (Q96GD4 whole entry): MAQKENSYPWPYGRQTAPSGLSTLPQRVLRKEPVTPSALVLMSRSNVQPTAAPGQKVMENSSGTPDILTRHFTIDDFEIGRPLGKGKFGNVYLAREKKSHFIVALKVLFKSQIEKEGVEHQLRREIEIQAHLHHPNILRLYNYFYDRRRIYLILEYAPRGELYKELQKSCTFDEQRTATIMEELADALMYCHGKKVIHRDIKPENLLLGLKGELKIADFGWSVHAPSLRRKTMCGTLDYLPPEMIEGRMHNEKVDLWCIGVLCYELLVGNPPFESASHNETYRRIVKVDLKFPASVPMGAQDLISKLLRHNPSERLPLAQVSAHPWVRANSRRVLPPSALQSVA

- ΔTm at 10 µM ([1]; read-out: 6c): 4 °C
- ΔTm at 10 µM ([2]; read-out: 6c): 0 °C
- ΔTm at 10 µM ([3]; read-out: 6c): 9 °C
- ΔTm at 10 µM ([4]; read-out: 6c): 1 °C
SMILES: CC(C)Oc1ccc2ccn(-c3cncc(-c4ccc(C(=O)O)cc4)n3)c2c1 [6c]

- ΔTm at 10 µM ([1]; read-out: 7c): 2 °C
- ΔTm at 10 µM ([2]; read-out: 7c): 0 °C
- ΔTm at 10 µM ([3]; read-out: 7c): 7 °C
- ΔTm at 10 µM ([4]; read-out: 7c): 0 °C
SMILES: COc1ccc(OC(C)C)cc1Nc1cncc(-c2ccc(C(=O)O)cc2)n1 [7c]

- ΔTm at 10 µM ([1]; read-out: 2): 4 °C
- ΔTm at 10 µM ([2]; read-out: 2): 0 °C
- ΔTm at 10 µM ([3]; read-out: 2): 11 °C
- ΔTm at 10 µM ([4]; read-out: 2): 1 °C
SMILES: CC(C)Nc1ccc2cnn(-c3cncc(-c4ccc(C(=O)O)cc4)n3)c2c1 [compound 2, 2]
